Laboratory results taken from the NIST ThermoML archive (doi:10.1016/j.jct.2010.11.013).
Numbers after ± are expanded uncertainties.

What was measured:
[1] = 298.15 K; 101.33 kPa; Liquid; Vibrating tube method
[2] = refractive index (Na D-line) (dimensionless); conditions: 298.15 K; 101.33 kPa; Liquid; Standard Abbe refractometry

Row | SMILES | mass density [1] [kg/m3] | refractive index [2]
1 | CCOS(=O)(=O)[O-].CCn1cc[n+](C)c1 [1-ethyl-3-methylimidazolium ethyl sulfate] | 1237.23 ± 0.43 | 1.4791 ± 0.0007
2 | CCCCCCCCC [nonane] | 713.99 ± 0.25 | 1.40326 ± 0.0007
3 | CCCCCCCC [octane] | 698.6 ± 0.18 | 1.39519 ± 0.00068
4 | Cc1ccccc1 [toluene] | 862.17 ± 0.11 | 1.49399 ± 0.00068

Second part, the compound after the results:

Row | mass density [1] [kg/m3] | refractive index [2] | SMILES
5 | 679.56 ± 0.19 | 1.38515 ± 0.00068 | CCCCCCC [heptane]
6 | 655.19 ± 0.26 | 1.37234 ± 0.0007 | CCCCCC [hexane]
